IC50 data for 31 compounds are collected here from patent US9139567B2, “Arylpyrazole ethers as inhibitors of leukotriene A4 hydrolase” (Boehringer Ingelheim International GmbH, priority 2011, dated 2015).

One assay deals with T1, human LTA4 hydrolase (Homo sapiens, UniProt P09960).
T1 sequence (P09960 1-611): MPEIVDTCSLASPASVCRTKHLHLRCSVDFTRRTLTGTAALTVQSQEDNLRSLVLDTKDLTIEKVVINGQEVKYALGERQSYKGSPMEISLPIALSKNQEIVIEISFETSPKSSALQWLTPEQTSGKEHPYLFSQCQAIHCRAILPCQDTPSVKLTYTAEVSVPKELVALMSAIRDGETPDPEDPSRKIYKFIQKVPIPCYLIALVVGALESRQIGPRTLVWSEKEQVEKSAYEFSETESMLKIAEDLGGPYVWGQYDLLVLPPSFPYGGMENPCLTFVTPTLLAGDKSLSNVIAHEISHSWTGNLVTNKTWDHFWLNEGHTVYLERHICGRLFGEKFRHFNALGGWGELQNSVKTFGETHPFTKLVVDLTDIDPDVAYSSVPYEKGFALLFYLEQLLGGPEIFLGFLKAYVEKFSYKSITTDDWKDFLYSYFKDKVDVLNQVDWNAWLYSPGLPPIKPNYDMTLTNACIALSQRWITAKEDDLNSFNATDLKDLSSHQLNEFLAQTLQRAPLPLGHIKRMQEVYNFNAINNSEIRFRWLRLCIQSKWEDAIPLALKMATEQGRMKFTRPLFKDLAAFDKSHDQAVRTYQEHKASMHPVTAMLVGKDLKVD
In words: LTA4H enzyme assay (cleavage of Arg-AMC, fluorescence). The class given is biochemical. As to conditions: LTA4H enzyme 1 nM, Arg-AMC substrate 50 μM, room temperature 1 h. The protocol: Compounds are assessed for the ability to interact with human LTA4 hydrolase in an enzymatic assay that measures the ability of the enzyme to cleave the peptide bond of arginyl-aminomethylcoumarin (Arg-AMC). LTA4H Enzyme (1 nM final), Arg-AMC substrate (50 μM final), and compound are combined in a reaction buffer (50 mM Tris-HCl (pH 7.5), 100 mM KCl, 0.5% bovine serum albumin) at room temperature for 1 h. The formation of product is assessed by measuring the fluorescence of aminomethylcoumarin product (excitation wavelength 380 nm/emission wavelength 460 nm).

The subject of assay [1] is LTB4 production in human whole blood. The assay can be described thus: LTB4 production inhibition assay in human whole blood (calcimycin-stimulated). As to conditions: heparinized human whole blood, 15 min 37° C., calcimycin 20 μM 30 min, plasma LTB4 by HTRF. It is filed as cell-based. As for the experimental part: Compounds of the invention are additionally tested in a human whole blood assay to determine their ability to inhibit the synthesis of LTB4 in a cellular system. Compounds are combined with heparinized human whole blood and incubated for 15 minutes at 37° C. Calcimycin (20 μM final, prepared in phosphate-buffered saline, pH 7.4) is then added and the mixture is incubated for another 30 minutes at 37° C. The samples are centrifuged for 5 min at low speed (1500×g) and the plasma layer is removed. Plasma LTB4 concentrations are then measured using an antibody-based homogenous time-resolved fluorescence method (CisBio, Bedford, Mass.).
Background: TR-FRET usually uses a lanthanide donor and a delayed reading to cut background.

In the case of `C[C@@H](Oc1ccc(Oc2ccc(-c3ccn[nH]3)cc2)cc1)c1ccccn1` [Example 59, 2-[(1R)-1-{4-[4-(1H-pyrazol-5-yl)phenoxy]phenoxy}ethyl]pyridine], the IC50 (in general, the concentration that gives 50% inhibition) at human LTA4 hydrolase was 42.7 nM; in assay [1] it was at least 5000 nM.

As to `Cc1nc(COc2ccc(Oc3ccc(-c4ccn[nH]4)cc3)cc2)co1` [Example 60, 2-methyl-4-({4-[4-(1H-pyrazol-5-yl)phenoxy]phenoxy}methyl)-1,3-oxazole], the IC50 was 3.9 nM against human LTA4 hydrolase and at least 5000 nM in assay [1].

Regarding `Cn1nccc1COc1ccc(Oc2ccc(-c3ccn[nH]3)cc2)cc1` [Example 61, 1-methyl-5-({4-[4-(1H-pyrazol-5-yl)phenoxy]phenoxy}methyl)-1H-pyrazole], the half-inhibitory concentration (IC50) at human LTA4 hydrolase amounted to 1.4 nM; in assay [1], 1120 nM.

As for `c1ccc(COc2ccc(Oc3ccc(-c4ccn[nH]4)cc3)cc2)cc1` [Example 62, 5-{4-[4-(benzyloxy)phenoxy]phenyl}-1H-pyrazole], the concentration for half-maximal inhibition (IC50) against human LTA4 hydrolase was 142 nM; in assay [1], at least 5000 nM.

On to `c1cc(-c2ccc(Oc3ccc(OCc4ccoc4)cc3)cc2)[nH]n1` [Example 63, 5-{4-[4-(3-furylmethoxy)phenoxy]phenyl}-1H-pyrazole], for which the values for the IC50 (on human LTA4 hydrolase; in assay [1]) were 52.9 nM and at least 5000 nM, respectively.

Turning to `c1ccc2sc(COc3ccc(Oc4ccc(-c5ccn[nH]5)cc4)cc3)nc2c1` [Example 64, 2-({4-[4-(1H-pyrazol-5-yl)phenoxy]phenoxy}methyl)-1,3-benzothiazole], the values for the IC50 (against human LTA4 hydrolase; in assay [1]) were 44.2 nM and at least 5000 nM, respectively.

Consider `Cn1ccc(COc2ccc(Oc3ccc(-c4ccn[nH]4)cc3)cc2)n1` [Example 65, 1-methyl-3-({4-[4-(1H-pyrazol-5-yl)phenoxy]phenoxy}methyl)-1H-pyrazole], for which the IC50 against human LTA4 hydrolase is 12.9 nM; in assay [1], at least 5000 nM.

As for `c1ccc(CCOc2ccc(Oc3ccc(-c4ccn[nH]4)cc3)cc2)cc1` [Example 66, 5-{4-[4-(2-phenylethoxy)phenoxy]phenyl}-1H-pyrazole], the IC50 at human LTA4 hydrolase was 959 nM; in assay [1] it was at least 5000 nM.

Turning to `Cc1ncsc1CCOc1ccc(Oc2ccc(-c3ccn[nH]3)cc2)cc1` [Example 67, 4-Methyl-5-(2-{4-[4-(2H-pyrazol-3-yl)-phenoxy]-phenoxy}-ethyl)-thiazole], the IC50 at human LTA4 hydrolase is 11.2 nM; in assay [1] it was at least 5000 nM.

With `c1csc(CCOc2ccc(Oc3ccc(-c4ccn[nH]4)cc3)cc2)c1` [Example 68, 5-(4-{4-[2-(2-thienyl)ethoxy]phenoxy}phenyl)-1H-pyrazole], the half-inhibitory concentration (IC50) on human LTA4 hydrolase was 820 nM; in assay [1], at least 5000 nM.

`c1cc(-c2ccc(Oc3ccc(OCc4ccsc4)cc3)cc2)[nH]n1` [Example 69, 5-{4-[4-(3-thienylmethoxy)phenoxy]phenyl}-1H-pyrazole]: the IC50 against human LTA4 hydrolase is 65.3 nM; in assay [1], at least 5000 nM.

Regarding `c1cc(-c2ccc(Oc3ccc(OCc4cncs4)cc3)cc2)[nH]n1` [Example 70, 5-({4-[4-(1H-pyrazol-5-yl)phenoxy]phenoxy}methyl)-1,3-thiazole], the values for the IC50 (against human LTA4 hydrolase; in assay [1]) were 4.9 nM and 2390 nM, respectively.

On to `c1cc(-c2ccc(Oc3ccc(OCc4ccc5ncsc5c4)cc3)cc2)[nH]n1` [Example 71, 6-({4-[4-(1H-pyrazol-5-yl)phenoxy]phenoxy}methyl)-1,3-benzothiazole], for which the IC50 is 59.5 nM at human LTA4 hydrolase and at least 5000 nM in assay [1].

Consider `c1cc(-c2ccc(Oc3ccc(OCCc4cnoc4)cc3)cc2)[nH]n1` [Example 72, 4-(2-{4-[4-(1H-pyrazol-5-yl)phenoxy]phenoxy}ethyl)isoxazole], for which the IC50 was 6.1 nM on human LTA4 hydrolase and 2550 nM in assay [1].

Regarding `c1cc(-c2ccc(Oc3ccc(OCc4nccs4)cc3)cc2)[nH]n1` [Example 73, 2-({4-[4-(1H-pyrazol-5-yl)phenoxy]phenoxy}methyl)-1,3-thiazole], the 50% inhibitory concentration (IC50) was 10.4 nM at human LTA4 hydrolase and 4100 nM in assay [1].

Take `Cc1ncoc1COc1ccc(Oc2ccc(-c3ccn[nH]3)cc2)cc1` [Example 74, 4-methyl-5-({4-[4-(1H-pyrazol-5-yl)phenoxy]phenoxy}methyl)-1,3-oxazole]: the figures for the IC50 (at human LTA4 hydrolase; in assay [1]) were 17.9 nM and 2550 nM, respectively.

In the case of `c1cnc(COc2ccc(Oc3ccc(-c4ccn[nH]4)cc3)cc2)nc1` [Example 75, 2-({4-[4-(1H-pyrazol-5-yl)phenoxy]phenoxy}methyl)pyrimidine], the IC50 at human LTA4 hydrolase turned out to be 6.6 nM; in assay [1], 2840 nM.

`c1cc(-c2ccc(Oc3ccc(OCc4ccc5nccn5c4)cc3)cc2)[nH]n1` [Example 76, 6-({4-[4-(1H-pyrazol-5-yl)phenoxy]phenoxy}methyl)imidazo[1,2-a]pyridine]: the IC50 came to 0.9 nM against human LTA4 hydrolase and 1420 nM in assay [1].

Turning to `Cc1nnsc1COc1ccc(Oc2ccc(-c3ccn[nH]3)cc2)cc1` [Example 77, 4-Methyl-5-{4-[4-(2H-pyrazol-3-yl)-phenoxy]-phenoxymethyl}-[1,2,3]thiadiazole], the half-inhibitory concentration (IC50) was 1 nM against human LTA4 hydrolase and 492 nM in assay [1].

Regarding `c1cc(-c2ccc(Oc3ccc(OCc4cnco4)cc3)cc2)[nH]n1` [Example 78, 5-({4-[4-(1H-pyrazol-5-yl)phenoxy]phenoxy}methyl)-1,3-oxazole], the results for the IC50 (against human LTA4 hydrolase; in assay [1]) were 2.8 nM and 1650 nM, respectively.

As for `CC(COc1ccc(Oc2ccc(-c3ccn[nH]3)cc2)cc1)Cn1cccn1` (centres unmarked) [Example 79, 1-(2-methyl-3-{4-[4-(1H-pyrazol-5-yl)phenoxy]phenoxy}propyl)-1H-pyrazole], the IC50 turned out to be 2.7 nM at human LTA4 hydrolase and 2110 nM in assay [1].

In the case of `c1cnn(-c2ccc(COc3ccc(Oc4ccc(-c5ccn[nH]5)cc4)cc3)cn2)c1` [Example 80, 2-(1H-pyrazol-1-yl)-5-({4-[4-(1H-pyrazol-5-yl)phenoxy]phenoxy}methyl)pyridine], the IC50 on human LTA4 hydrolase is 1.9 nM; in assay [1] it was 1650 nM.

On to `c1cc(-c2ccc(Oc3ccc(OCc4ccc5[nH]cnc5c4)cc3)cc2)[nH]n1` [Example 81, 5-({4-[4-(1H-pyrazol-5-yl)phenoxy]phenoxy}methyl)-1H-benzimidazole], for which the half-inhibitory concentration (IC50) on human LTA4 hydrolase was 14.2 nM; in assay [1], at least 5000 nM.

Turning to `c1cc(-c2ccc(Oc3ccc(OCCC4CCOCC4)cc3)cc2)[nH]n1` [Example 82, 5-(4-{4-[2-(tetrahydro-2H-pyran-4-yl)ethoxy]phenoxy}phenyl)-1H-pyrazole], the IC50 on human LTA4 hydrolase turned out to be 7.9 nM; in assay [1] it was 2670 nM.

For `c1cc(-c2ccc(Oc3ccc(OCC4CCCOC4)cc3)cc2)[nH]n1` (centres unmarked) [Example 83, 5-{4-[4-(tetrahydro-2H-pyran-3-ylmethoxy)phenoxy]phenyl}-1H-pyrazole], the values for the IC50 (against human LTA4 hydrolase; in assay [1]) were 2.9 nM and 1740 nM, respectively.

With `c1cc(-c2ccc(Oc3ccc(OCC4CCOCC4)cc3)cc2)[nH]n1` [Example 84, 5-{4-[4-(tetrahydro-2H-pyran-4-ylmethoxy)phenoxy]phenyl}-1H-pyrazole], the values for the IC50 (on human LTA4 hydrolase; in assay [1]) were 4.6 nM and 1460 nM, respectively.

For the compound `O=C1CC[C@H](COc2ccc(Oc3ccc(-c4ccn[nH]4)cc3)cc2)O1` [Example 85, (5R)-5-({4-[4-(1H-pyrazol-5-yl)phenoxy]phenoxy}methyl)dihydrofuran-2(3H)-one], the IC50 against human LTA4 hydrolase is 0.8 nM; in assay [1] it was at least 5000 nM.

Consider `O=C1CC[C@@H](COc2ccc(Oc3ccc(-c4ccn[nH]4)cc3)cc2)O1` [Example 86, (5S)-5-({4-[4-(1H-pyrazol-5-yl)phenoxy]phenoxy}methyl)dihydrofuran-2(3H)-one], for which the IC50 stood at 0.8 nM against human LTA4 hydrolase and 4500 nM in assay [1].

For `O=C1OCC[C@@H]1Oc1ccc(Oc2ccc(-c3ccn[nH]3)cc2)cc1` [Example 87, (3S)-3-{4-[4-(1H-pyrazol-5-yl)phenoxy]phenoxy}dihydrofuran-2(3H)-one], the IC50 on human LTA4 hydrolase is 23.1 nM; in assay [1], at least 5000 nM.

For the compound `O=C1OCC[C@H]1Oc1ccc(Oc2ccc(-c3ccn[nH]3)cc2)cc1` [Example 88, (3R)-3-{4-[4-(1H-pyrazol-5-yl)phenoxy]phenoxy}dihydrofuran-2(3H)-one], the figures for the IC50 (against human LTA4 hydrolase; in assay [1]) were 16.4 nM and at least 5000 nM, respectively.

For `c1cc(-c2ccc(Oc3ccc(OC4CCOCC4)cc3)cc2)[nH]n1` [Example 89, 5-{4-[4-(tetrahydro-2H-pyran-4-yloxy)phenoxy]phenyl}-1H-pyrazole], the figures for the IC50 (at human LTA4 hydrolase; in assay [1]) were 4.8 nM and 1770 nM, respectively.
